Source: patent US8541588B2, “Sulfonamide derivatives” (Pfizer Limited, priority 2009, dated 2013)

Target: T1, Nav1.7 (or SCN9A) channel; HEK cells stably transfected with hSCN9A (Homo sapiens, UniProt Q15858)
T1 construct: expressed in transfected cells
Assay: Nav1.7 block, PatchXpress 7000 automated whole-cell voltage clamp, estimated IC50 (EIC50)
Type: cell-based
Details: estimated IC50; hSCN9A HEK cells, PatchXpress platform; Examples 815-1040

T1 sequence (Q15858 whole entry): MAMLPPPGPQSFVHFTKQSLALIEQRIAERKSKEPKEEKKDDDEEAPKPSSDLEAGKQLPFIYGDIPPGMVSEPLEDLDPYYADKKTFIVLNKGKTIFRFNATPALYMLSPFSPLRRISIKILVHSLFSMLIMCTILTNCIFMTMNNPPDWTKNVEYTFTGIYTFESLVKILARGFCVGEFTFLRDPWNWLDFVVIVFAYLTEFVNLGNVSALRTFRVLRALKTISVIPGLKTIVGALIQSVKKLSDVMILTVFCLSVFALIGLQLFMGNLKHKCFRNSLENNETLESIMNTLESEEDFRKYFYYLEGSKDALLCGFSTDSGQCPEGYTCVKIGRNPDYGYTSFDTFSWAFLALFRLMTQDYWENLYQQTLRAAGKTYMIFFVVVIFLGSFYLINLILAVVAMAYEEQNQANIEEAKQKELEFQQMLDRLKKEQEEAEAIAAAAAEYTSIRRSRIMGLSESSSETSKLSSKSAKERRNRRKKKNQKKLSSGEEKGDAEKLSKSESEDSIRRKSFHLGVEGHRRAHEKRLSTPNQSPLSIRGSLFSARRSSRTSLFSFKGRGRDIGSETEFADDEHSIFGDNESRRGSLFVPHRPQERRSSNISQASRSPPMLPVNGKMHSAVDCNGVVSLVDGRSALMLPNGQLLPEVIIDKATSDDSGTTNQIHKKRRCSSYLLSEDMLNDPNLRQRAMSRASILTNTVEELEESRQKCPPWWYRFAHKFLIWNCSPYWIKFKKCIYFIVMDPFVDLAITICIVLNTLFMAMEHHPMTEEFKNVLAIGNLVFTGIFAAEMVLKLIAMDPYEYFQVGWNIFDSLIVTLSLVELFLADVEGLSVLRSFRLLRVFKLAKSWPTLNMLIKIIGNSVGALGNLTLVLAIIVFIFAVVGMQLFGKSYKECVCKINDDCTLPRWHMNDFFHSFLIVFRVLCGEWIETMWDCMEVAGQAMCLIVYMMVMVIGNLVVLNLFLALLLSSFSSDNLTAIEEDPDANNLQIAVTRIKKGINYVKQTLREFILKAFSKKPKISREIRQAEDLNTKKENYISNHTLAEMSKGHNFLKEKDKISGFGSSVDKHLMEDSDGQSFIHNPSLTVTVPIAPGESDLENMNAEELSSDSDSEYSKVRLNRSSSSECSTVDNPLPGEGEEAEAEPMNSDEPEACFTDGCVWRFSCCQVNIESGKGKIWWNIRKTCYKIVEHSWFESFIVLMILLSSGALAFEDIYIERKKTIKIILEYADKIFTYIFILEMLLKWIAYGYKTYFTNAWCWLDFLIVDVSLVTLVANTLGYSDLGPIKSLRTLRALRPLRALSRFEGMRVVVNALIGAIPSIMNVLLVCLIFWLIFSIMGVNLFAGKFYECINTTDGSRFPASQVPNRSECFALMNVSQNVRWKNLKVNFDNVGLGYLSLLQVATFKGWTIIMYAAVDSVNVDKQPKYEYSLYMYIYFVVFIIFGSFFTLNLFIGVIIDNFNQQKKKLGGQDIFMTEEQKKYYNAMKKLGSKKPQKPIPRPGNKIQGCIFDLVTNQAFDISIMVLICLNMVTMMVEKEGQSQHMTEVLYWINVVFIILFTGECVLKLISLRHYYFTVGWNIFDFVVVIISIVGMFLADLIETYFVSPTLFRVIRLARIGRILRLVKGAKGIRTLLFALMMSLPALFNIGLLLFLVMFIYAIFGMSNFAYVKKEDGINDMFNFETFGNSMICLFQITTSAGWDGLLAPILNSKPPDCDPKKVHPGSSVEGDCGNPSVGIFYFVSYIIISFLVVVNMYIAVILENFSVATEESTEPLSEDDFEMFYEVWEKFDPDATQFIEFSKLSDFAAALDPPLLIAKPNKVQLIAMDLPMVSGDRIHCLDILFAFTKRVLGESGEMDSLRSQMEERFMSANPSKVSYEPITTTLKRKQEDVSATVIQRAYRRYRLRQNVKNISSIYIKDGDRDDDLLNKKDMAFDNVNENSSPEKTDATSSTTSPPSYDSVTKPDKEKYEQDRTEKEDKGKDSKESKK

IC50 | SMILES
1.5 nM | CCN1CC(n2nccc2-c2cc(Cl)ccc2Oc2cc(F)c(S(=O)(=O)Nc3ncns3)cc2F)C1 [Example 975, 4-{4-chloro-2-[1-(1-ethylazetidin-3-yl)-1H-pyrazol-5-yl]phenoxy}-2,5-difluoro-N-1,2,4-thiadiazol-5-ylbenzenesulfonamide]
2.5 nM | O=S(=O)(Nc1ncns1)c1ccc(Oc2ccc(C(F)(F)F)cc2-c2ccnnc2)c(C(F)(F)F)c1 [Example 976, 4-[2-pyridazin-4-yl-4-(trifluoromethyl)phenoxy]-N-1,2,4-thiadiazol-5-yl-3-(trifluoromethyl)benzenesulfonamide]
4.6 nM | Cc1cc(S(=O)(=O)Nc2ncns2)c(F)cc1Oc1ccc(C(F)(F)F)cc1-c1ccnnc1 [Example 978, 2-fluoro-5-methyl-4-[2-pyridazin-4-yl-4-(trifluoromethyl)phenoxy]-N-1,2,4-thiadiazol-5-ylbenzenesulfonamide]
110 nM | N#Cc1cc(S(=O)(=O)Nc2ncns2)ccc1Oc1ccc(C(F)(F)F)cc1-c1ccc[n+]([O-])c1 [Example 979, 3-cyano-4-[2-(1-oxidopyridin-3-yl)-4-(trifluoromethyl)phenoxy]-N-1,2,4-thiadiazol-5-ylbenzenesulfonamide]
>300 nM | Cc1nn(C(C)(C)C)cc1-c1cc(Cl)ccc1Oc1cc(F)c(S(=O)(=O)Nc2nncs2)cc1Cl [Example 982, 4-[2-(1-tert-butyl-3-methyl-1H-pyrazol-4-yl)-4-chlorophenoxy]-5-chloro-2-fluoro-N-1,3,4-thiadiazol-2-ylbenzenesulfonamide]
2700 nM | Cc1n[nH]cc1-c1ccccc1Oc1ccc(S(=O)(=O)Nc2nccs2)cc1C(N)=O [Example 983, 2-[2-(3-methyl-1H-pyrazol-4-yl)phenoxy]-5-[(1,3-thiazol-2-ylamino)sulfonyl]benzamide]
560 nM | CCOc1n[nH]cc1-c1cc(Cl)ccc1Oc1cc(F)c(S(=O)(=O)Nc2cscn2)cc1F [Example 984, 4-[4-chloro-2-(3-ethoxy-1H-pyrazol-4-yl)phenoxy]-2,5-difluoro-N-1,3-thiazol-4-ylbenzenesulfonamide]
2300 nM | N#Cc1cc(S(=O)(=O)Nc2nccs2)ccc1Oc1ccccc1-c1cncnc1 [Example 985, 3-cyano-4-(2-pyrimidin-5-ylphenoxy)-N-1,3-thiazol-2-ylbenzenesulfonamide]
>10000 nM | N#Cc1cc(S(=O)(=O)Nc2nccs2)ccc1Oc1ccc(-c2cnn(CC(F)(F)F)c2N)cc1 [Example 986, 4-{4-[5-amino-1-(2,2,2-trifluoroethyl)-1H-pyrazol-4-yl]phenoxy}-3-cyano-N-1,3-thiazol-2-ylbenzenesulfonamide]
1.1 nM | N#Cc1cc(S(=O)(=O)Nc2ncns2)ccc1Oc1ccc(C(F)(F)F)cc1-c1cccc(CN2CC[C@@H](O)C2)c1 [Example 987, 3-cyano-4-{[3′-{[(3R)-3-hydroxypyrrolidin-1-yl]methyl}-5-(trifluoromethyl)biphenyl-2-yl]oxy}-N-1,2,4-thiadiazol-5-ylbenzenesulfonamide]
0.7 nM | N#Cc1cc(S(=O)(=O)Nc2ncns2)ccc1Oc1ccc(C(F)(F)F)cc1-c1cccc(CN2CCC2)c1 [Example 988, 4-{[3′-(azetidin-1-ylmethyl)-5-(trifluoromethyl)biphenyl-2-yl]oxy}-3-cyano-N-1,2,4-thiadiazol-5-ylbenzenesulfonamide]
950 nM | CC(=O)N1CC(n2nccc2-c2cc(F)ccc2Oc2cc(F)c(S(=O)(=O)Nc3cscn3)cc2Cl)C1 [Example 989, 4-{2-[1-(1-acetylazetidin-3-yl)-1H-pyrazol-5-yl]-4-fluorophenoxy}-5-chloro-2-fluoro-N-1,3-thiazol-4-ylbenzenesulfonamide]
310 nM | N#Cc1cc(S(=O)(=O)Nc2ncc(Cl)s2)ccc1Oc1ccc(Cl)cc1-c1ccon1 [Example 990, 4-(4-chloro-2-isoxazol-3-ylphenoxy)-N-(5-chloro-1,3-thiazol-2-yl)-3-cyanobenzenesulfonamide]
